# Test system: Bmi-1 protein
# Experiment: Sandwich ELISA Assay (Bmi-1 protein level in HT-1080 cells after compound treatment)
# Assay type: cell-based
# Settings: Table 1, Bmi-1 sandwich ELISA, read-out: ELISA EC50 value for Bmi-1 protein
# Outline: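 Sandwich ELISA quantified Bmi-1 protein against recombinant standard (125–8000 pg/mL), with lysates captured overnight at 4 °C and signal by HRP/TMB at 450 nm (570 nm reference). Lysates came from HT-1080 cells incubated 40–48 h with test compounds in 0.5% DMSO.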
row,EC50,SMILES
1,0.001 to 0.01 µM,"Cc1nc2c(n1-c1cncc(Nc3ccc(OC(F)F)cc3)n1)CCCC2 [compound 258, N-[4-(difluoromethoxy)phenyl]-6-(2-methyl-4,5,6,7-tetrahydro-1H-benzimidazol-1-yl)pyrazin-2-amine]"
2,0.01 to 0.1 µM,"Cc1nc2cc(F)c(F)cc2n1-c1cncc(Nc2ccc(OC(F)(F)F)cc2)n1 [compound 266, 6-(5,6-difluoro-2-methyl-1H-benzimidazol-1-yl)-N-[4-(trifluoromethoxy)phenyl]pyrazin-2-amine]"
3,0.001 to 0.01 µM,"Cc1nc2c(n1-c1cncc(Nc3ccc(C(F)(F)F)cc3)n1)CCCC2 [compound 267, 6-(2-methyl-4,5,6,7-tetrahydro-1H-benzimidazol-1-yl)-N-[4-(trifluoromethyl)phenyl]pyrazin-2-amine]"
4,0.01 to 0.1 µM,"Cc1nc2c(n1-c1cncc(Nc3ccc(OC(F)(F)F)cc3)n1)CCCC2 [compound 268, 6-(2-methyl-4,5,6,7-tetrahydro-1H-benzimidazol-1-yl)-N-[4-(trifluoromethoxy)phenyl]pyrazin-2-amine]"
5,0.001 to 0.01 µM,"Cc1nc2ncc(F)cc2n1-c1cncc(Nc2ccc(C(F)(F)F)cc2)n1 [compound 270, 6-(6-fluoro-2-methyl-1H-imidazo[4,5-b]pyridin-1-yl)-N-[4-(trifluoromethyl)phenyl]pyrazin-2-amine]"
6,0.001 to 0.01 µM,"CCc1nc2ncc(F)cc2n1-c1cncc(Nc2ccc(C(F)(F)F)cc2)n1 [compound 271, 6-(2-ethyl-6-fluoro-1H-imidazo[4,5-b]pyridin-1-yl)-N-[4-(trifluoromethyl)phenyl]pyrazin-2-amine]"
7,0.01 to 0.1 µM,"N#Cc1cc(Nc2ccc(C(F)(F)F)cc2)nc(-c2c(C(F)(F)F)nc3ccc(F)cn23)c1 [compound 272, 2-[6-fluoro-2-(trifluoromethyl)imidazo[1,2-a]pyridin-3-yl]-6-{[4-(trifluoromethyl)phenyl]amino}pyridine-4-carbonitrile]"
8,0.001 to 0.01 µM,"N#Cc1cc(Nc2ccc(OC(F)F)cc2)nc(-c2c(C(F)(F)F)nc3ccc(F)cn23)c1 [compound 273, 2-{[4-(difluoromethoxy)phenyl]amino}-6-[6-fluoro-2-(trifluoromethyl)imidazo[1,2-a]pyridin-3-yl]pyridine-4-carbonitrile]"
9,0.01 to 0.1 µM,"CNc1ccc2nc(C)n(-c3cncc(Nc4ccc(C(F)(F)F)cc4)n3)c2c1 [compound 274, N,2-dimethyl-1-(6-{[4-(trifluoromethyl)phenyl]amino}pyrazin-2-yl)-1H-benzimidazol-6-amine]"
10,0.01 to 0.1 µM,"Cc1nc2ccc(NCc3ccccc3)cc2n1-c1cncc(Nc2ccc(C(F)(F)F)cc2)n1 [compound 275, N-benzyl-2-methyl-1-(6-{[4-(trifluoromethyl)phenyl]amino}pyrazin-2-yl)-1H-benzimidazol-6-amine]"
11,0.01 to 0.1 µM,"Cc1c(-c2cncc(Nc3ccc(C(F)(F)F)cc3)n2)c(C(F)(F)F)nn1C [compound 276, 6-[1,5-dimethyl-3-(trifluoromethyl)-1H-pyrazol-4-yl]-N-[4-(trifluoromethyl)phenyl]pyrazin-2-amine]"
12,0.01 to 0.1 µM,"Cc1cccc2c1nc(C)n2-c1cncc(Nc2ccc(C(F)(F)F)cc2)n1 [compound 283, 6-(2,4-dimethyl-1H-benzimidazol-1-yl)-N-[4-(trifluoromethyl)phenyl]pyrazin-2-amine]"

# Further lines, the compound ahead of its results:
row,SMILES,EC50
1,"CNc1ccc2nc(C)n(-c3cncc(Nc4ccc(OC(F)(F)F)cc4)n3)c2c1 [compound 225, N,2-dimethyl-1-(6-{[4-(trifluoromethoxy)phenyl]amino}pyrazin-2-yl)-1H-benzimidazol-6-amine]",0.1 to 3 µM
2,"Cc1n[nH]c(C)c1-c1cncc(Nc2ccc(C(F)(F)F)cc2)n1 [compound 226, 6-(3,5-dimethyl-1H-pyrazol-4-yl)-N-[4-(trifluoromethyl)phenyl]pyrazin-2-amine]",0.1 to 3 µM
3,"Cc1nc2cc(F)c(F)cc2n1-c1cc(N)cc(Nc2ccc(C(F)(F)F)cc2)n1 [compound 231, 6-(5,6-difluoro-2-methyl-1H-benzimidazol-1-yl)-N^2-[4-(trifluoromethyl)phenyl]pyridine-2,4-diamine]",0.01 to 0.1 µM
4,"Cc1nc2cc(Cl)ccc2n1-c1cncc(Nc2ccc(C(F)(F)F)cc2)n1 [compound 239, 6-(5-chloro-2-methyl-1H-benzimidazol-1-yl)-N-[4-(trifluoromethyl)phenyl]pyrazin-2-amine]",0.01 to 0.1 µM
5,"Cc1nc2ccc(Cl)cc2n1-c1cncc(Nc2ccc(C(F)(F)F)cc2)n1 [compound 240, 6-(6-chloro-2-methyl-1H-benzimidazol-1-yl)-N-[4-(trifluoromethyl)phenyl]pyrazin-2-amine]",0.01 to 0.1 µM
6,"Cc1nc2cc(F)c(F)cc2n1-c1cc(C#N)cc(Nc2ccc(C(F)(F)F)cc2)n1 [compound 241, 2-(5,6-difluoro-2-methyl-1H-benzimidazol-1-yl)-6-{[4-(trifluoromethyl)phenyl]amino}pyridine-4-carbonitrile]",0.01 to 0.1 µM
7,"Cc1nc2cc(F)c(F)cc2n1-c1cc(C#N)cc(Nc2ccc(OC(F)F)cc2)n1 [compound 242, 2-{[4-(difluoromethoxy)phenyl]amino}-6-(5,6-difluoro-2-methyl-1H-benzimidazol-1-yl)pyridine-4-carbonitrile]",0.01 to 0.1 µM
8,"Cc1nc2cc(F)c(F)cc2n1-c1cc(C#N)cc(Nc2ccc(OC(F)(F)F)cc2)n1 [compound 243, 2-(5,6-difluoro-2-methyl-1H-benzimidazol-1-yl)-6-{[4-(trifluoromethoxy)phenyl]amino}pyridine-4-carbonitrile]",0.1 to 3 µM
9,"FC(F)Oc1ccc(Nc2cncc(-c3c(C4CC4)nc4ccc(C(F)(F)F)cn34)n2)cc1 [compound 251, 6-[2-cyclopropyl-6-(trifluoromethyl)imidazo[1,2-a]pyridin-3-yl]-N-[4-(difluoromethoxy)phenyl]pyrazin-2-amine]",0.01 to 0.1 µM
10,"Cc1nc2c(F)cc(F)cn2c1-c1cncc(Nc2ccc(OC(F)F)cc2)n1 [compound 255, N-[4-(difluoromethoxy)phenyl]-6-(6,8-difluoro-2-methylimidazo[1,2-a]pyridin-3-yl)pyrazin-2-amine]",0.001 to 0.01 µM
11,"Cc1nc2ccccc2n1-c1cncc(Nc2ccc(C(C)N)cc2)n1 (stereo not drawn) [compound 256, N-[4-(1-aminoethyl)phenyl]-6-(2-methyl-1H-benzimidazol-1-yl)pyrazin-2-amine]",0.1 to 3 µM

# Same assay, conditions: read-out: ELISA EC50 value for Bmi-1 protein, Table 1, Bmi-1 sandwich ELISA
row,SMILES,EC50
1,"FC(F)(F)c1ccc(Nc2cncc(-c3cnc4ccccn34)n2)cc1 [compound 235, 6-(imidazo[1,2-a]pyridin-3-yl)-N-[4-(trifluoromethyl)phenyl]pyrazin-2-amine]",0.1 to 3 µM
2,"Cc1nc2c(F)cc(F)cn2c1-c1cncc(Nc2ccc(C(F)(F)F)cc2)n1 [compound 254, 6-(6,8-difluoro-2-methylimidazo[1,2-a]pyridin-3-yl)-N-[4-(trifluoromethyl)phenyl]pyrazin-2-amine]",0.001 to 0.01 µM
3,"Cc1ccc(-c2c(C(F)(F)F)nc3ccccn23)nc1Nc1ccc(C(F)(F)F)cc1 [compound 269, 3-methyl-6-[2-(trifluoromethyl)imidazo[1,2-a]pyridin-3-yl]-N-[4-(trifluoromethyl)phenyl]pyridin-2-amine]",0.1 to 3 µM
4,"Cc1c(-c2cncc(Nc3ccc(OC(F)F)cc3)n2)c(C(F)(F)F)nn1C [compound 280, N-[4-(difluoromethoxy)phenyl]-6-[1,5-dimethyl-3-(trifluoromethyl)-1H-pyrazol-4-yl]pyrazin-2-amine]",0.01 to 0.1 µM

# From patent publication US10584115B2, “Substituted pyridine and pyrazine BMI-1 inhibitors” (PTC Therapeutics, Inc., priority 2013, dated 2020)
